{"source": "patent EP0099121A2", "about": "“Pharmaceutical compositions” (Bristol-Myers Company, priority 1982, dated 1984)"}
{"test_system": "Gastric Acid Output", "assay": "Gastric antisecretory activity in the Gastric Fistula Rat (Table 2 title: Two-Hour Pylorus Ligated Rat)", "type": "in vivo, Long Evans rats", "conditions": "Rattus norvegicus, sc; Route of Administration s.c.; numbers in parentheses are the 95% confidence limits; read-out: ED50", "procedure": "Male Long Evans rats weighing about 240-260 grams at the time of cannula implantation are used. The design and implantation of the stainless steel cannula into the anterior wall of the fore-stomach are carried out essentially as described by Pare et al. [Laboratory Animal Science, 27, 244 (1977)]. The fistula components are designed and the operative procedure is carried out exactly as described in the above reference. Post operatively the animals are individually housed in solid bottom cages with sawdust and are allowed food and water ad libitum throughout the entire recovery period. Animals are not used for test purposes for at least 15 days after the operative procedure.\nThe animals are fasted but allowed water ad libitum for 20 hours before the testing procedure is to begin. Immediately prior to collection, the cannula is opened and the stomach washed gently with 30-40 mL of warm saline or distilled water to remove any residual contents. The catheter is then screwed into the cannula in place of the plugging screw and the rat is placed in a clear plastic rectangular cage measuring 40 cm long, 15 cm wide and 13 cm high. The bottom of the cage has a slit approximately 1.5 cm wide and 25 cm long running down the center to accommodate the catheter which hangs through it. In this way the rat is not restricted and can move freely about the cage during collection periods. The remainder of the assay is carried out as described by Ridley et al. [Research Comm. Chem. Path. Pharm., 17, 365 (1977)].\nGastric secretions collected during the first hour after washing the stomach are discarded as they may be contaminated. For oral evaluation, the catheter is then removed from the cannula and replaced with the plugging screw. Water (2 mL/kg) is administered orally via gastric intubation and the animal is returned to the cage for 45 minutes. After this time the plugging screw is removed and replaced with a catheter to which a small plastic vial has been attached to collect the gastric secretions. A two hour sample is collected (this represents the control secretion), the catheter removed and replaced with the plugging screw. The test drug is now administered orally in a volume of 2 mL/kg via gastric intubation. Forty-five minutes later the plugging screw is again removed, replaced with the catheter attached to a small plastic vial and another 2 hour sample is collected. The secretions in the second sample are compared to those of the control sample in order to determine the effects of the test drug.\nWhen test compounds are to be evaluated parenterally, the animal is injected ip or sc with the test compound vehicle in a volume of 2 mL/kg immediately after discarding the initial 60 minute collection. A two hour sample is collected (control secretion) and the animals are injected either ip or sc with the test compound in a volume of 2 mL/kg. An additional two hour sample is collected and its secretions are compared to those of the control period to determing drug effects.\nThe samples are centrifuged in a graduated tube for volume determination. Titratable acidity is measured by titrating a one mL sample to pH 7.0 with 0.02N NaOH, using an Autoburet and an electrometric pH meter (Radiometer). Titratable acid output is calculated in microequivalents by multiplying the volume in milliliters by the acid concentration in milliequivalents per liter.\nResults are expressed as percent inhibition relative to control readings. Dose response curves are constructed and ED values are calculated by regression analyses. At least three rats are used at each dosage level and a minimum of three dosage levels are utilized for determination of a dose response curve.", "units": {"ED50": "µmol/kg"}}
{"smiles": "CN(C)Cc1ccc(CSCCNC2=NS(=O)(=O)N=C2NC2CC2)o1", "note": "[Example 97, 3-Cyclopropylamino-4-{2-[(5-dimethylaminomethyl-2-furyl)-methylthio]ethylamino}-1,2,5-thiadiazole 1,1-dioxide]", "ED50": "~3"}
{"smiles": "CN(C)Cc1ccc(CSCCNC2=NS(=O)(=O)N=C2NCC2CC2)o1", "note": "[Example 98, 3-Cyclopropylmethylamino-4-{2-[ (5-dimethylaminomethyl-2-furyl)methylthio]ethylamino}-1,2,5-thiadiazole 1,1-dioxide]", "ED50": 0.52}
{"smiles": "CN(C)Cc1ccc(CSCCNC2=NS(=O)(=O)N=C2N2CCOCC2)o1", "note": "[Example 99, 3-{2-[(5-Dimethylaminomethyl-2-furyl)methylthio]ethylamino}-4-morpholino-1,2,5-thiadiazole 1,1-dioxide]", "ED50": 32}
{"smiles": "COCCNC1=NS(=O)(=O)N=C1NCCSCc1ccc(CN(C)C)o1", "note": "[Example 100, 3-{2-[(5-Dimethylaminomethyl-2-furyl)methylthio]ethylamino}-4-(2-methoxyethylamino)-1,2,5-thiadiazole 1,1-dioxide]", "ED50": 1.6}
{"smiles": "CN(C)Cc1ccc(CSCCNC2=NS(=O)(=O)N=C2N2CCCC2)o1", "note": "[Example 101, 3-{2-[(5-Dimethylaminomethyl-2-furyl)methylthio]ethylamino}-4-pyrrolidino-1,2,5-thiadiazole 1,1-dioxide]", "ED50": 68}
{"smiles": "CCCCNC1=NS(=O)(=O)N=C1NCCSCc1ccc(CN(C)C)o1", "note": "[Example 103, 3-Butylamino-4-(2-[(5-dimethylaminomethyl-2-furyl)methylthio]-ethylamino}-1,2,5-thiadiazole 1,1-dioxide]", "ED50": 0.54}
{"smiles": "CN(C)Cc1ccc(CSCCNC2=NS(=O)(=O)N=C2NCc2ccccn2)o1", "note": "[Example 104, 3-{2-[(5-Dimethylaminomethyl-2-furyl)methylthio]ethylamino}-4-[(2-pyridyl)methylamino]-1,2,5-thiadiazole 1,1-dioxide]", "ED50": 0.61}
{"smiles": "CN(C)Cc1ccc(CSCCNC2=NS(=O)(=O)N=C2NO)o1", "note": "[Example 105, 3-{2-[(5-Dimethylaminomethyl-2-furyl)methylthio]ethy1arnino}-4-hydroxylamino-1,2,5-thiadiazole 1,1-dioxide]", "ED50": 1.65}
{"smiles": "CONC1=NS(=O)(=O)N=C1NCCSCc1ccc(CN(C)C)o1", "note": "[Example 107, 3-{2-[(5-Dimethylaminomethyl-2-furyl)methylthio]ethylamino}-4-methoxyamino-1,2,5-thiadiazole 1,1-dioxide]", "ED50": 23}
{"smiles": "CCCNC1=NS(=O)(=O)N=C1NCCSCc1ccc(CN(C)C)s1", "note": "[Example 108, 3-{2-[(5-Dimethylaminomethyl-2-thienyl)methylthio]ethylamino}-4-propylamino-1,2,5-thiadiazole 1,1-dioxide]", "ED50": 2.2}
{"smiles": "CN(C)Cc1ccc(CSCCNc2n[s+]([O-])nc2N)s1", "note": "(stereo not shown) [Example 109, 3-Amino-4-{2-[(5-dimethylaminomethyl-2-thienyl)methylthio]-ethylamino}-1,2,5-thiadiazole 1-oxide]", "ED50": 1.4}
{"smiles": "CN(C)Cc1ccc(CSCCNC2=NS(=O)(=O)N=C2NCc2cccnc2)s1", "note": "[Example 110, 3-{2-[(5-Dimethylaminomethyl-2-thienyl)methylthio]ethylamino}-4-[(3-pyridyl)methylamino]-1,2,5-thiadiazole 1,1-dioxide]", "ED50": 0.05}
{"smiles": "CN(C)Cc1ccc(CSCCNC2=NS(=O)(=O)N=C2N)s1", "note": "[Example 111, 3-Amino-4-{2-[(5-dimethylaminomethyl-2-thienyl)methylthio]-ethylamino}-1,2,5-thiadiazole 1,1-dioxide]", "ED50": 0.64}
{"smiles": "CN(C)Cc1ccc(CSCCNC2=NS(=O)(=O)N=C2NCc2ccccc2)s1", "note": "[Example 112, 3-Benzylamino-4-(2-[(5-dimethylaminomethyl-2-thienyl)-methylthio]ethylamino}-1,2,5-thiadiazole 1,1-dioxide]", "ED50": 1.2}
{"smiles": "CNC1=NS(=O)(=O)N=C1NCCCOc1cccc(CN(C)C)c1", "note": "[Example 113, 3-[3-(3-Dimethylaminomethylphenoxy)propylamino]-4-methylamino-1,2,5-thiadiazole 1,1-dioxide]", "ED50": 0.07}
{"smiles": "CNC1=NS(=O)(=O)N=C1NCCSCc1cnc(CN(C)C)s1", "note": "[Example 114, 3-{2-[(2-Dimethylaminomethylthiazol-5-yl)methylthio]-ethylamino}-4-methylamino-1,2,5-thiadiazole 1,1-dioxide]", "ED50": "~15"}
{"smiles": "CNc1n[s+]([O-])nc1NCCSCc1csc(NC(=N)N)n1", "note": "(stereo not shown) [Example 115, 3-{2-[(2-Guanidinothiazol-4-yl)methylthio]ethylamino}-4-methylamino-1,2,5-thiadiazole 1-oxide]", "ED50": 0.57}
{"smiles": "NC(N)=Nc1nc(CSCCNc2n[s+]([O-])nc2O)cs1", "note": "(stereo not shown) [Example 116, 3-{2-[(2-Guanidinothiazol-4-yl)methylthylthio]ethylamino}-4-hydroxy-1,2,5-thiadiazole 1-oxide]", "ED50": "> 10"}
{"smiles": "CN=C(N)Nc1nc(CSCCNc2n[s+]([O-])nc2N)cs1", "note": "(stereo not shown) [Example 117, 3-Amino-4-{2-[(2-{2-methylguanidino}thiazol-4-yl)methylthio]-ethylamino}-1,2,5-thiadiazole 1-oxide]", "ED50": "~0.5"}
{"smiles": "CNc1nc(CSCCNc2n[s+]([O-])nc2N)cs1", "note": "(stereo not shown) [Example 119]", "ED50": "> 10"}
{"smiles": "CN=C(NC)Nc1nc(CSCCNc2n[s+]([O-])nc2N)cs1", "note": "(stereo not shown) [Example 120, 3-Amino-4-{2-[(2-{2,3-dimethylguanidino}thiazol-4-yl)-methylthio]ethylamino}-1,2,5-thiadiazole I-oxide]", "ED50": "~5"}
{"smiles": "N=C(N)Nc1nc(CSCCNc2n[s+]([O-])nc2NCCSCc2csc(NC(=N)N)n2)cs1", "note": "(stereo not shown) [Example 121, 3,4-Bis-{2-[(2-guanidinothiazol-4-yl)methylthio]ethylamino}-1,2,5-thiadiazole 1-oxide]", "ED50": 0.19}
{"smiles": "CNC1=NS(=O)(=O)N=C1NCCSCc1csc(N)n1", "note": "[Example 122, 3-{2-[(2-Aminothiazol-4-yl)methylthio]ethylamino}-4-methylamino-1,2,5-thiadiazole 1,1-dioxide]", "ED50": "~10"}
{"smiles": "CN(C)Cc1ncc(CSCCNc2n[s+]([O-])nc2N)s1", "note": "(stereo not shown) [Example 123, 3-Amino-4-{2-[(2-dimethylaminomethylthiazol-5-yl)methylthio]-ethylamino}-1,2,5-thiadiazole 1-oxide]", "ED50": "> 10"}
{"smiles": "Nc1nc(CSCCNc2n[s+]([O-])nc2N)cs1", "note": "(stereo not shown) [Example 124, 3-Amino-4-{2-[(2-aminothiazol-4-yl)methylthio]ethylamino}-1,2,5-thiadiazole 1-oxide]", "ED50": "> 10"}
{"smiles": "CN=C(NC)Nc1nc(CSCCNC2=NS(=O)(=O)N=C2NC)cs1", "note": "[Example 125, 3-Methylamino-4-{2-[(2-{2,3-dimethylguanidino)thiazol-4-yl)-methylthio]ethylamino}-1,2,5-thiadiazole 1,1-dioxide]", "ED50": "~10"}
{"smiles": "CNC1=NS(=O)(=O)N=C1NCCSCc1csc(N(C)C)n1", "note": "[Example 127, 3-{2-[(2-Dimethylaminothiazol-4-yl)methylthio]ethylamino}-4-methylamino-1,2,5-thiadiazole 1,1-dioxide]", "ED50": "> 10"}
{"smiles": "CNC1=NS(=O)(=O)N=C1NCCSCc1csc(N=C2NCCN2)n1", "note": "[Example 128, 3-{2-[(2-{2-Imidazolidinyl}iminothiazol-4-yl)methylthio]-ethylamino}-4-methy1amino-1,2,5-thiadiazole 1,1-dioxide]", "ED50": "~10"}
{"smiles": "CN(C)Cc1ccc(CSCCNC2=NS(=O)(=O)N=C2NCc2ccccn2)s1", "note": "[Example 129, 3-{2-[(5-Dimethylaminomethyl-2-thienyl)methylthio]ethylamino}-4-[(2-pyridyl)methylamino]-1,2,5-thiadiazole 1,1-dioxide]", "ED50": "~1"}
{"smiles": "CN(C)Cc1ccc(CSCCNC2=NS(=O)(=O)N=C2NCc2ccncc2)s1", "note": "[Example 130, 3-{2-[(5-Dimethylaminomethyl-2-thienyl)methylthio]ethylamino}-4-[(4-pyridyl)methylamino]-1,2,5-thiadiazole 1,1-dioxide]", "ED50": 2.3}
{"smiles": "CCNC1=NS(=O)(=O)N=C1NCCSCc1ccc(CN(C)C)s1", "note": "[Example 131, 3-{2-[(5-Dimethylaminomethyl-2-thienyl)methylthio]ethylamino}-4-ethylamino-1,2,5-thiadiazole 1,1-dioxide]", "ED50": "~0.5"}
